Results: US6710077B1, “Use of thiocarboxanilide derivatives for the preparation of a medicament for preventing the transmission of HIV to uninfected cells and contraceptive compositions comprising the said derivatives” (Uniroyal Chemical Company, Inc., priority 1996, dated 2004)

Experiments:
[1] = system: PBL cells isolated from blood of HIV-1 infected patients; assay: Incubation of PBL from HIV-1 infected patients with compound, then co-culture with CBMC; format: cell-based; conditions: for infectivity of HIV-1 produced by patient PBL: 10 μM, 2 hr at 37° C., drug removed, co-culture with CBMC, p24 antigen, FIG. 3
Description: FIG. 3 depicts the effect of pretreatment of peripheral blood lymphocytes (PBL) from HIV-1 infected patients with Compound IA on the subsequent virus infectivity of CBMC cells. 2×10^6 isolated PBL cells were incubated for 2 hours with media only (●), 10 μM nevirapine (▪), or 10 μM Compound IA (▴), then residual drug was removed. The cells were then co-cultured with 2×10^6 CBMC cells and p24 production was monitored.
PBL cells (2×10^6 cells) isolated from blood of HIV-1 infected patients were incubated with media, 10 μM nevirapine and 10 μM Compound IA, in a total volume of 1 ml for 2 hr at 37° C. Excess drug was then removed by pelleting the cells by centrifugation at 300×g for 10 min and removal of the medium. The cell pellet was washed by suspension in 10 ml media, followed by centrifugation. This washing step was repeated twice. The final cell pellet was resuspended in 1 ml media, then co-cultured with 1 ml of activated CBMC (2×10^6 cells) The culture medium was changed every two days, and fresh activated CBMC (2×10^6 cells) were added once a week. HIV-1 production was monitored by measurement of p24 antigen levels in cell-free culture supernatants.
FIG. 3 illustrates the results obtained using PBL from three different patients.

[2] = system: HIV-1; assay: Preincubation of isolated HIV-1 with test compounds, then infection of PHA-activated CBMC; conditions: 2 hours at 37° C., drug removed, RT activity and p24 on day 7, FIG. 1
Description: Identical viral inocula (with respect to viral p24 levels) were then added to PHA-activated CBMC. Viral infectivity was assessed by measurement of RT activity in cell-free culture supernatants after 7 days incubation of cells and virus. […] The results are averages ±S.D. of triplicate determinations from three separate experiments.
All cells were cultured in RPMI medium containing 10% fetal bovine serum. HIV-1 stocks were propagated by subculture in MT-2 cells; aliquots of the cell-free culture supernatants were generally used as viral inocula. In some cases, virus was further concentrated from these cell-free supernatants by ultracentrifugation. CBMC were prestimulated with phytohemagglutinin (PHA) prior to use in infection experiments, as described in Rooke et al, Virology 176: 205-215 (1990). Stock solutions of the test compounds were prepared in dimethyl sulfoxide (DMSO). […] Virus production was assessed by measurement of RT activity and viral p24 antigen levels in the culture supernatants.
After incubation, drug-free RPMI was added to a final volume of 15 ml and the diluted sample was concentrated to a final volume of 0.7 ml using a Centriprep-100 centrifugal concentrating device, according to manufacturer's directions. […] On day 7, culture supernatants were isolated and HIV production assessed by measurement of RT activity and p24 antigen levels in the cell-free supernatants.

[3] = system: HIV-1 chronically-infected H9 cells; assay: Incubation of HIV-1 chronically-infected H9 cells with test compounds, then infectivity on MT-2 cells; format: cell-based
Text: FIG. 2 depicts the effect of pretreatment of chronically-infected H9 cells with Compound IA or UC84 on (A) virus particle release from H9 cells during drug exposure, as assessed by measurement of HIV-1 p24 levels; (B) infectivity of isolated virus produced by H9 cells during drug treatment, as assessed by the ability to subsequently infect MT2 cells in the absence of drug; and (C) the ability of Compound IA-pretreated chronically-infected H9 cells to subsequently infect MT2 cells in co-culture experiments carried out in the absence of drug. The data illustrated for (B) and (C) were obtained four days after exposure of MT2 cells to virus or H9 cells, respectively. (∘) Compound UC84; (●) Compound IA.
The cells were then separated from the culture supernatants by centrifugation at 1000×g for 10 min. The virus particles were isolated from the culture supernatants and from residual Compound IA using Centriprep-100 centrifugal concentrating devices and the dilution/concentration protocol described above in Example 1. The pelleted H9 cells were washed by suspension in 10 ml RPMI, followed by centrifugation at 1000×g for 10 min. The cell pellet was resuspended in 4 ml RPMI/10% FBS, and used in co-culture experiments as described below.
Aliquots of the final concentrated HIV suspension were added to MT-2 cells ([…] cells/ml). Virus infectivity was assessed 6 days post-infection by analysis of syncytium formation, and RT activity and p24 antigen in the MT-2 cell culture supernatants. Similarly, aliquots of the drug-treated H9 cells were added to MT-2 cells (3×10^5 cells/ml) to give a final MT-2:H9 cell ratio of 30:1. Cells were co-cultured for 4 days, and HIV infection of MT-2 cells was scored by assessing syncytium formation and by analysis of RT activity in the culture supernatants.

[4] = system: HIV-1 infection of uninfected MT-2 cells; conditions: MT-2 cells pretreated with 2 μM, drug removed, continued presence of HIV-1
Description: FIG. 4A: Uninfected MT2 cells were incubated for 18 hours with varying concentrations of Compound IA in 1 ml media, then the cells were pelleted by centrifugation, and washed twice by resuspension in 10 ml medium followed by centrifugation. The cells were exposed to identical inocula of HIV-1 and cultured in the absence of added drug. Four days after removal of Compound IA, the extent of HIV-1 infection was assessed by measurement of syncytia formation (●), viral p24 antigen levels (▴), and RT activity (∘), in cell-free supernatants. […] Uninfected MT2 cells were incubated for 18 hours in the absence (∘) or the presence of 0.5 μM (▴), 1 μM (∇), or 2 μM (●), of Compound IA. […] Viral cytopathicity was scored by microscopic assessment of syncytia formation. […]
FIG. 5A: Uninfected MT2 cells were incubated for 18 hours in the absence (▪) or the presence (●) of 2 μM of Compound IA, then the cells were isolated and cultured in the absence of drug. At various times thereafter, HIV-1 was added and virus infectivity assessed by microscopic analysis of syncytium formation. […]
All cells were cultured in RPMI medium containing 10% fetal bovine serum. […] Virus production was assessed by measurement of RT activity and viral p24 antigen levels in the culture supernatants. […]

Compound | infectivity of HIV-1 produced by patient PBL [1] | viral infectivity after preincubation of isolated HIV-1 with compound [2] | persistence of attenuated infectivity following removal of extracellular compound ([3]; chronically-infected H9 cells) | infectivity of virus produced by H9 cells following removal of compound ([3]; pretreated, washed H9 cells co-cultured with MT-2 cells in absence of drug) | infectivity of virus particles isolated after exposure of chronically-infected H9 cells ([3]; virus isolated from culture supernatants, added to MT-2 cells in absence of drug, FIG. 2) | viral infectivity after 30 days co-culture with uninfected CBMC ([1]; 10 μM pretreatment of patient PBL, 30 days co-culture) | duration of resistance to the cytopathic effect of HIV-1 [4] | resistance of pretreated cells to the cytopathic effect of HIV-1 ([4]; syncytium formation)
Cc1ccnc2c1NC(=O)c1cccnc1N2C1CC1 [nevirapine, reference compound] | unable to significantly delay viral infectivity | No viral inactivation |  |  |  |  |  | 
CC(C)=CCOc1cc(NC(=S)c2ccoc2C)ccc1Cl [Compound IA, N-[4-chloro-3-(3-methyl-2-butenyloxy)phenyl]-2-methyl-3-furancarbothioamide] | abolished the infectivity | rendered non-infectious | at least 4 days | also attenuated in infectivity | significantly attenuated in infectivity | No viral infectivity | at least 9 days | completely resistant
